Assay results published in patent US12661410B2, “Compounds for targeted degradation of RET” (C4 Therapeutics, Inc., priority 2020, dated 2026).
Positions count from the first letter of the chain named. Like-named read-outs stand apart in the source and are kept apart here.

What was measured:
RET (658-1114) = target: T1, RET (658-1114) (Homo sapiens, UniProt P07949); assay: HiBiT-Degradation, RET wild-type degradation assay (Nano-Glo HiBiT Lytic), 293T.144 cells; assay type: cell-based; conditions: for Emax / DC50: 6.0 hours; for Emax: read-out: 293T.144 RET (658-1114) 6.0 hours (Emax); for DC50: read-out: 293T.144 RET (658-1114) 6.0 hours (DC50)
T1 construct: 658-1114; expressed in transfected cells; host or cells: 293T.144 (293T cells, generated in-house)
T1 sequence (P07949 658-1114): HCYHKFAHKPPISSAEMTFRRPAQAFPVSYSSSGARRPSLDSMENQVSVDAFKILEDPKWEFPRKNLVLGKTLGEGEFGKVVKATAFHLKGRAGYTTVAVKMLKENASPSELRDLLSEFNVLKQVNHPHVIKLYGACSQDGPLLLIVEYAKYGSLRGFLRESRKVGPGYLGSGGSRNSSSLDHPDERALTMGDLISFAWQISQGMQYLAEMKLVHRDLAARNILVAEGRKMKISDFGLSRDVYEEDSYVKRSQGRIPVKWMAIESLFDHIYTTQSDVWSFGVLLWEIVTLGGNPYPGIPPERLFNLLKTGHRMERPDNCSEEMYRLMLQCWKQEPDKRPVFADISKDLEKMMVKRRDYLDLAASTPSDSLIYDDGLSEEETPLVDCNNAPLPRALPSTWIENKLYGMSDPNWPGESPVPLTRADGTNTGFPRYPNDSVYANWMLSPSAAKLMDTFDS
In short: (§1)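 Degradation after 6 h compound exposure (top 10 μM, 11 half-log points, duplicates) measured by Nano-Glo HiBiT lytic luminescence. Cells: 293T.144 carrying wild-type and 293T.165 carrying G810R HiBiT-RET kinase domain; curves yield DC50 and Emax.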

RET(KD: 658-1114 G810R) = target: T2, RET(KD: 658-1114 G810R) (Homo sapiens, UniProt P07949, G810R); assay: HiBiT-Degradation, RET G810R degradation assay (Nano-Glo HiBiT Lytic), 293T.165 cells; assay type: cell-based; conditions: for Emax / DC50: 6.0 hours; for Emax: % remaining protein, read-out: 293T.165 RET(KD: 658-1114 G810R) 6.0 hours (Emax); for DC50: read-out: 293T.165 RET(KD: 658-1114 G810R) 6.0 hours (DC50)
T2 construct: 658-1114; expressed in transfected cells; host or cells: 293T.165 (293T cells, generated in-house)
T2 sequence (P07949 658-1114 G810R): T1 sequence (P07949 658-1114) with G153R
In short: as §1

[1] = half-maximal degradation concentration

293T.144 RET (658-1114) 6.0 hours (IP) [nM] (RET (658-1114))	Emax (RET (658-1114); % remaining protein) [%]	DC50 (RET (658-1114); [1]) [nM]	293T.165 RET(KD: 658-1114 G810R) 6.0 hours (IP) [nM] (RET(KD: 658-1114 G810R))	Emax (RET(KD: 658-1114 G810R)) [%]	DC50 (RET(KD: 658-1114 G810R); [1]) [nM]	293T.144 RET (658-1114) 6.0 hours (IP) [nM] (RET (658-1114); HiBiT-Degradation)	DC50 (RET (658-1114); HiBiT-Degradation) [nM]	Emax (RET (658-1114); HiBiT-Degradation) [%]	293T.165 RET(KD: 658-1114 G810R) 6.0 hours (Emax) (RET(KD: 658-1114 G810R); HiBiT-Degradation)	293T.165 RET(KD: 658-1114 G810R) 6.0 hours (IP) [nM] (RET(KD: 658-1114 G810R); HiBiT-Degradation)	DC50 (RET(KD: 658-1114 G810R); HiBiT-Degradation) [nM]	Compound
++++ (<50 nM = ++++)	< 30	< 50	++++ (<50 nM = ++++)	< 30	< 50							CCC1(c2ncccn2)CCN(c2ccc(-c3nc(-c4cnn([C@H]5CC[C@H](N6CCC(c7ccc(N[C@H]8CCC(=O)NC8=O)cc7F)CC6)CC5)c4)cn4ncc(C#N)c34)cn2)CC1 (single isomer, unassigned) [Compound 139]
++++ (<50 nM = ++++)	< 30	< 50	++++ (<50 nM = ++++)	< 30	< 100							CCC1(NC(=O)c2ncccc2Cl)CCN(c2ccc(-c3nc(-c4cnn([C@H]5CC[C@@H](N6CCN(c7ccc8c(N9CCC(=O)NC9=O)nn(C)c8c7F)CC6)CC5)c4)cn4ncc(C#N)c34)cn2)CC1 (single isomer, unassigned) [Compound 170, 3-Chloro-N-(1-(5-(3-cyano-6-(1-((1s, 4s)-4-(4-(3-(2,4-dioxotetrahydropyrimidin-1(2H)-yl)-7-fluoro-1-methyl-1H-indazol-6-yl)piperazin-1-yl)cyclohexyl)-1H-pyrazol-4-yl)pyrazolo[1,5-a]pyrazin-4-yl)pyridin-2-yl)-4-ethylpiperidin-4-yl)picolinamide]

The next lines start with the compound.

Compound	293T.144 RET (658-1114) 6.0 hours (IP) [nM] (RET (658-1114))	Emax (RET (658-1114); % remaining protein) [%]	DC50 (RET (658-1114); [1]) [nM]	293T.165 RET(KD: 658-1114 G810R) 6.0 hours (IP) [nM] (RET(KD: 658-1114 G810R))	Emax (RET(KD: 658-1114 G810R)) [%]	DC50 (RET(KD: 658-1114 G810R); [1]) [nM]	293T.144 RET (658-1114) 6.0 hours (IP) [nM] (RET (658-1114); HiBiT-Degradation)	DC50 (RET (658-1114); HiBiT-Degradation) [nM]	Emax (RET (658-1114); HiBiT-Degradation) [%]	293T.165 RET(KD: 658-1114 G810R) 6.0 hours (Emax) (RET(KD: 658-1114 G810R); HiBiT-Degradation)	293T.165 RET(KD: 658-1114 G810R) 6.0 hours (IP) [nM] (RET(KD: 658-1114 G810R); HiBiT-Degradation)	DC50 (RET(KD: 658-1114 G810R); HiBiT-Degradation) [nM]
CC(C)NC(=O)C1(C)CCN(c2ccc(-c3cc(-c4cnn(C5CCC6(CC5)CN(C(=O)CN5CCC(c7ccc(NC8CCC(=O)NC8=O)cc7)CC5)C6)c4)cn4ncc(C#N)c34)cn2)CC1 (stereo not shown) [Compound 196, 1-(5-(3-cyano-6-(1-(2-(2-(4-(4-((2,6-dioxopiperidin-3-yl)amino)phenyl)piperidin-1-yl)acetyl)-2-azaspiro[3.5]nonan-7-yl)-1H-pyrazol-4-yl)pyrazolo[1,5-a]pyridin-4-yl)pyridin-2-yl)-N-isopropyl-4-methylpiperidine-4-carboxamide]	++++ (<50 nM = ++++)	< 30	< 50	++++ (<50 nM = ++++)	< 30	< 100						
N#Cc1cnn2cc(-c3ccc(N4CCN(C(=O)CN5CCC(c6ccc(NC7CCC(=O)NC7=O)cc6)CC5)CC4)cc3)cc(-c3ccc(N4CCC(Nc5ccccc5)CC4)nc3)c12 (stereo not shown) [Compound 20, 6-(4-(4-(2-(4-(4-((2,6-Dioxopiperidin-3-yl)amino)phenyl)piperidin-1-yl)acetyl)piperazin-1-yl)phenyl)-4-(6-(4-(phenylamino)piperidin-1-yl)pyridin-3-yl)pyrazolo[1,5-a]pyridine-3-carbonitrile]					< 30	< 100	++++ (< 50 nM = ++++)	< 50	< 30	++++ (< 30% = ++++)	+++ (<100 nM = +++)	< 100
N#Cc1cnn2cc(-c3ccc(N4CCN(C(=O)CN5CCC(c6ccc(NC7CCC(=O)NC7=O)cc6)CC5)CC4)cc3)cc(-c3ccc(N4C[C@H]5CC[C@@H](C4)O5)nc3)c12 (stereo partly drawn) [Compound 19, 4-(6-((1R,5S)-8—Oxa-3-azabicyclo[3.2.1]octan-3-yl)pyridin-3-yl)-6-(4-(4-(2-(4-(4-((2,6-dioxopiperidin-3-yl)amino)phenyl)piperidin-1-yl)acetyl)piperazin-1-yl)phenyl)pyrazolo[1,5-a]pyridine-3-carbonitrile]					< 50	< 100	++++ (< 50 nM = ++++)	< 50	< 30	+++ (<50% = +++)	++++ (< 50 nM = ++++)	< 100
